Reference: patent US20110098556A1, “Computer-Based Method And System For Imaging-Based Dynamic Function Evaluation Of An Organ” (priority 2008, published 2011)
Where “and” joins values, the source holds several entries; their conditions need not be identical. Identical values can stand only once.

Experiments:
[1] = test system: liver; assay: Gd-EOB-DTPA-enhanced MRI in patients with primary sclerosing cholangitis (PSC); type: in vivo, human; parameters: HEF: unit not given here
Method: (§1) T1-weighted Gd-EOB-DTPA-enhanced MRI was performed on 20 healthy volunteers, 10 men and 10 women, and on patients with an established diagnosis of PSC. Routine serum liver function tests were performed at inclusion in the study on the healthy volunteers, and for the patients it was recorded from the most recent visit documented in their clinical charts. The healthy volunteers had no history of hepato-biliary disease, previous hepato-biliary surgery or alcohol abuse. All subjects were asked to be fasting for at least four hours prior to the examination. For each patient, relevant clinical data was documented and together with the results from the liver function tests they were used to calculate the CPS, Mayo risk score and MELD score.
(§2) T1-weighted Gd-EOB-DTPA-enhanced MRI was performed using a Philips Intera 1.5T scanner (Best, Holland), with a Philips four-channel SENSE body coil according to the protocol as outlined in Example 1. Deconvolutional analysis was performed using truncated singular value decomposition (TSVD). HEF and irBF were calculated as described above. […] The Mann-Whitney U-test was used for test of significance and the significance level was set to […]. All segments in every patient and controls yielded an observation and in the statistical analysis, all observations were regarded as independent observations, even if they originated from one individual. Thus, the study yielded 180 observations for each of the abovementioned parameters from the controls, and 108 observations from PSC patients.

[2] = in vivo; cited from earlier work
[3] = test system: liver; assay: Gd-EOB-DTPA-enhanced DHCE-MRI in patients with primary biliary cirrhosis (PBC); type: in vivo, human
Method: as §1, with “DHCE-MRI” for “MRI”, “PBC.” for “PSC.”
as §2, with “DHCE-MRI” for “MRI”, “protocol” for “protocol as outlined”, “PBC” for “PSC”

[4] = test system: liver; assay: T1-weighted Gd-EOB-DTPA-enhanced DHCE-MRI liver function test, healthy volunteers; type: in vivo, human; parameters: key to median HEF / HEF, mean / HEF, median / HEF, max / HEF: ratio of extrapolated hepatic retention curve to vascular peak of HE curve; conditions: for median HEF: healthy volunteers; for HEF, mean / HEF, max / HEF, median: n=20 healthy volunteers
Method: Deconvoluted liver response curves were analyzed with respect to HEF and RBF. HEF was described by Brown et al using Tc-99-disofenin scintigraphy as a measurement of hepatic extraction efficiency, and could be understood as the percentage of tracer that would have been extracted if the tracer had been injected directly into the afferent blood supply of the liver without subsequent recirculation. […] The HE curve can be divided into the vascular phase and the hepatocyte retention phase, which describes the hepatic extraction. We calculated HEF using a monoexponential fit to the HE-curve data points from 420 to 1800 seconds after the time of injection of the tracer. The starting point at 420 seconds was chosen after visual inspection of the deconvoluted HE curves. The fitted curve, the hepatic retention curve (HRC, a mono-exponentially decaying fitted curve), is then extrapolated back to the time of the vascular peak value, and HEF is defined as the ratio between the extrapolated HRC curve and the vascular peak of the HE curve (also shown in FIG. 3),
RBF, giving a relative measurement of blood flow in the liver, is described as the initial peak value of the HE curve. RBF values were normalized to the segment with the highest RBF, i.e. the segment with the highest RBF was set to 100%.
The input function was defined by a region of interest (ROI) placed in the hilar part of the portal vein. Due to patient motion, the input function ROI was adjusted in each dynamic acquisition so the voxels represent portal vein blood. Liver response function curves were defined by placing three ROIs in each liver segment (I to VIII with segment IV divided into IVa and IVb). The relative enhancement over time of the voxels in the ROI was regarded as the parenchymal response function for that ROI. Data points were interpolated using equidistant spacing (60 s) over the 90-minute time period. […] Care was taken to as far as possible to exclude major blood vessels and visible bile ducts when the ROIs were placed. Segments were defined and nomenclature adhered to as proposed by Strasberg SM. Terminology of liver anatomy and liver resections: coming to grips with hepatic Babel. J Am Coll Surg 1997; 184(4):413-434, which is incorporated herein by reference in its entirety. However, other segmentations may be used in other embodiments.
HEF and RBF were calculated for each ROI both with TSVD and FA+tail using specific in-house software written in MATLAB® (Mathworks, […], USA). Thus, each ROI yielded two values for HEF and RBF respectively. For TSVD, a static truncation threshold was set at c=0.07. A cosine function from 0 to π/2 with the initial height of the last point of x(t) and y(t) was added for the DA performed with FA, and the length of the tail was set to be three times the length of the total sampling period of 90 minutes. […]
To arrive at an estimation of the model parameters, an iterative method was used. After assigning starting values to kij and f the impulse response function h(t) was estimated through Eq 10, and an output function yout(t) was calculated through yout(t)=h(t) ? x(t)+f·x(t), using the input function x(t) from the portal vein as an estimate for the blood pool signal in Equation 7. The response function y(t) on the other hand was measured in a ROI in the liver parenchyma, and the parameters kij and f were determined by iteratively minimizing the squared difference diff=(y(t)−yout(t))^2, see FIG. 17.
For some response curves either T10, or both T5 and T10, were beyond the last measured time point, and no value was set. Tmax, T5 and T10 were measured in seconds.
where g(t) is the fitted curve and the fitting parameters c2 and TU describe contrast uptake, while c1 and TE describe the liver contrast excretion. Both TE and TU were calculated in minutes.
T1-weighted Gd-EOB-DTPA-enhanced DHCE-MRI was performed on 20 healthy volunteers, 10 men and 10 women, ages ranging from 22 to 45 years. […]

[5] = individual PSC patient, median of 9 segmental values
[6] = median for PSC patients (segments n = 108)
[7] = individual PBC patient, median of 9 segmental values
[8] = median for PBC patients (n = 108)
[9] = median for healthy controls (n = 180)

CCOc1ccc(CC(CN(CCN(CC(=O)[O-])CC(=O)[O-])CC(=O)[O-])N(CC(=O)[O-])CC(=O)[O-])cc1.[Gd+3].[Na+].[Na+] (stereo not drawn) [Gd-EOB-DTPA, Gadolinium ethoxybenzyl diethylenetriaminepentaacetic acid]
T5 [1, 5]: 1720 s and 980 s and 1620 s and 940 s and 1420 s and 1380 s and 1170 s and 1400 s and 1250 s and 1500 s and 1340 s and 2140 s
T10 [1, 5]: 1980 s and 1560 s and 1950 s and 1720 s and 2645 s and 1840 s and 2340 s and 2600 s and 2050 s and 2490 s and 2460 s and 3540 s
Tmax [1, 5]: 56.67 min and 41.67 min and 46.67 min and 27 min and 31 min and 30 min and 48 min and 21.33 min and 36.67 min and 28 min and 63.33 min
HEF ([1]; individual PSC patient, median of 9 segmental values, TSVD): 0.158 and 0.213 and 0.221 and 0.307 and 0.140 and 0.220 and 0.159 and 0.136 (2×) and 0.123 and 0.174 and 0.240
TE ([1]; individual PSC patient, median of 9 segments, bi-exponential fit): 1427 min and 110 min and 184 min and 102 min and 244 min and 211 min and 251 min and 203 min and 147 min and 128 min and 341 min and 452 min
HEF [1, 6]: 0.176
T5 [1, 6]: 1340 s
T10 [1, 6]: 2050 s
TE [1, 6]: 204 min
Tmax [1, 6]: 37.67 min
fraction eliminated by renal excretion (glomerular filtration) [2]: 50%
hepatic clearance [2]: about 50%
T5 (time from Tmax to five percent decay) [3, 7]: 24.33 min and 18.17 min and 40.67 min and 33 min and 24.83 min and 21.67 min and 34 min and 24.67 min and 25.67 min and 13.5 min and 4 min and 15.7 min
T10 (time from Tmax to ten percent decay) [3, 7]: 30.5 min and 28 min and 38 min and 34 min and 50.5 min and 32.5 min and 48 min and 41 min and 41.33 min and 30 min and 15.7 min and 24 min
Tmax (time to maximum intensity) [3, 7]: 48.33 min and 35 min and 36.67 min and 66.67 min and 43.33 min and 60 min and 22.67 min and 40 min and 8 min and 3.33 min and 51.67 min
HEF ([3]; individual PBC patient, median of 9 segmental values, TSVD): 0.163 (2×) and 0.225 and 0.302 and 0.150 and 0.093 and 0.226 and 0.199 and 0.155 and 0.106 and 0.047 and 0.152
TE (excretion half-time) ([3]; individual PBC patient, median of 9 segments, bi-exponential fit): 3780 min and 1591 min and 4791 min and 6961 min and 4241 min and 1180 min and 8011 min and 2130 min and 2481 min and 1141 min and 2830 min and 1281 min
T5 [3, 8]: 1440 s
T10 [3, 8]: 1920 s
TE [3, 8]: 2850 min
Tmax [3, 8]: 41 min
HEF ([3]; median for PBC patients (n = 108 segments)): 0.161
signal intensity half-time (TE) ([4]; compared with total scan time): > 90 min
mean HEF ([4]; example 1, healthy volunteers): above 20%
hepatic extraction fraction (HEF) ([4]; example curve of FIG. 3, FA+tail): approximately 17%
median HEF ([4]; left hemiliver, FA+tail): 0.194
median HEF ([4]; left hemiliver, TSVD): 0.196
HEF ([4]; median for 20 healthy controls (n = 180 segments), TSVD): 0.201
T5 [4, 9]: 1600 s
T10 [4, 9]: 2295 s
Tmax [4, 9]: 33.33 min
HEF, mean ([4]; 180 segmental values, deconvolution by TSVD): 0.215
HEF, max ([4]; FA + tail): 0.440
HEF, median ([4]; FA + tail): 0.210
HEF, max ([4]; TSVD): 0.436
HEF, median ([4]; TSVD): 0.208
HEF, mean ([4]; deconvolution by FA + tail): 0.217
median HEF ([4]; right hemiliver, FA+tail): 0.224
median HEF ([4]; right hemiliver, TSVD): 0.218
